Assay: physchem
Type: physicochemical
Method: ^a) Note regarding the determination of the log P values and mass detection: The log P values given were determined in accordance with EEC Directive 79/831 Annex V.A8 by HPLC (High Performance Liquid Chromatography) on a phase inversion column (C18). Agilent 1100 LC system; 50*4.6 Zorbax Eclipse Plus C18 1.8 micron; eluent A: acetonitrile (0.1% formic acid); eluent B: water (0.09% formic acid); linear gradient from 10% acetonitrile to 95% acetonitrile in 4.25 min, then 95% acetonitrile for a further 1.25 min; oven temperature 55° C.; flow: 2.0 ml/min. The mass detection is carried out via an Agilend MSD system.

[1] = HPLC phase inversion (reversed-phase) C18 column, HPLC method a), eluent acetonitrile/water with formic acid, read-out: logP
[2] = HPLC phase inversion (reversed-phase) C18 column, HPLC on C18 phase inversion column, method a), read-out: logP

| SMILES | logP | further results |
| --- | --- | --- |
| CC(NC(=O)c1cc(NC(=O)c2c(Br)c(C(F)(F)C(F)(F)F)nn2C)ccc1Cl)C1CC1 (stereo not drawn) [Ik-12] | 3.84^a) |  |
| COc1ccc(NC(=O)c2c(C(F)(F)F)c(C(F)(F)C(F)(F)F)nn2C)cc1C(=O)NC1CC1 [Ik-185] | 3.32^a) |  |
| Cn1nc(C(F)(F)C(F)(F)F)c(C(F)(F)F)c1C(=O)Nc1ccc(Cl)c(C(=O)NS(C)(=O)=O)c1 [Ik-24] | 3.13^a) |  |
| CCC(C)NC(=O)c1cc(NC(=O)c2c(C(F)(F)F)c(C(F)(F)C(F)(F)F)nn2C)ccc1Cl (stereo not drawn) [Ik-91] | 3.87^a) |  |
| Cn1nc(OC(F)F)c(Br)c1C(=O)Nc1ccc(Cl)c(C(=O)NC2CC2)c1 [Ik-237] | 2.51^a) |  |
| Cn1nc(C(F)(F)OC(F)(F)OC(F)(F)F)cc1C(=O)O [3-{[Difluoro(trifluoromethoxy)methoxy](difluoro)methyl}-1-methyl-1H-pyrazole-5-carboxylic acid] |  | chromatographic logP (logP): 3.38 |
| Cn1nc(C(F)(F)C(F)(F)F)c(C(F)(F)F)c1C(=O)Nc1cc(C(=O)NCC(F)(F)F)c(F)cc1F [Ik-146] | 3.64^a) |  |
| Cn1nc(C(F)(F)C(F)(F)F)c(C(F)(F)F)c1C(=O)Nc1cc(F)c(I)c(C(=O)NCc2ccccc2)c1 [Ik-227] | 4.20^a) |  |
| Cn1nc(C(F)(F)C(F)(F)F)c(C(F)(F)F)c1C(=O)Nc1cc(C(=O)O)c(Cl)cn1 [Ik-129, 5-Chloro-2-({[1-methyl-3-(pentafluoroethyl)-4-(trifluoromethyl)-1H-pyrazol-5-yl]carbonyl}amino)isonicotinic acid] |  | chromatographic logP [1]: 2.82; chromatographic logP [2]: 2.82 |
| CC(C)NC(=O)c1cc(NC(=O)c2ncc(C(F)(F)F)cc2Cl)ccc1Cl [Ii-2] | 2.73^a) |  |
| Cc1nc(C(F)(F)C(F)(F)F)ncc1C(=O)Nc1ccc(Cl)c(C(=O)NCc2ccccc2)c1 [Ib-26] | 3.43^a) |  |
| Cn1nc(C(F)(F)C(F)(F)F)c(C(F)(F)F)c1C(=O)Nc1cc(C(=O)NCC(F)(F)F)c(Cl)cn1 [Ik-317] | 3.61^a) |  |
| Cn1nc(OCC(F)(F)F)cc1C(=O)Nc1ccc(Cl)c(C(=O)NC2CC2)c1 [Ik-247] | 2.55^a) |  |
| Cc1nc(C(F)(F)C(F)(F)F)ncc1C(=O)Nc1ccc(Cl)c(C(=O)NCC=CCl)c1 [Ib-25] | 3.2^a) |  |
| Cn1nc(C(F)(F)C(F)(F)F)c(C(F)(F)F)c1C(=O)Nc1cc(C(=O)NCC(F)(F)F)c(F)cc1Cl [Ik-151] | 3.83^a) |  |
| O=C(NCC(F)(F)F)c1cc(NC(=O)c2nccc(C(F)(F)F)c2Cl)ccc1Cl [Ie-3] | 2.88^a) |  |
| O=C(NC1CC1)c1cc(NC(=O)c2cnc(C(F)(F)F)nc2C(F)(F)F)ccc1Cl [Ib-3] | 2.78^a) |  |
| Cn1nc(C(F)(F)C(F)(F)F)c(C(F)(F)F)c1C(=O)Nc1cc(Cl)c(Br)c(C(=O)NCc2ccccc2)c1 [Ik-214] | 4.42^a) |  |
| COC(=O)c1cc(N(C(=O)c2c(C(F)(F)F)c(C(F)(F)C(F)(F)F)nn2C)C(=O)c2c(C(F)(F)F)c(C(F)(F)C(F)(F)F)nn2C)ccc1Cl [Methyl 5-(bis{[1-methyl-3-(pentafluoroethyl)-4-(trifluoromethyl)-1H-pyrazol-5-yl]carbonyl}amino)-2-chlorobenzoate] |  | chromatographic logP [1]: 5.85 |
| CC(C)n1nc(C(F)(F)C(F)(F)F)c(C(F)(F)F)c1C(=O)Nc1ccc(Cl)c(C(=O)NC2CC2)c1 [Ik-218] | 4.02^a) |  |

| SMILES | logP | further results |
| --- | --- | --- |
| Cc1nc(C(F)(F)F)ncc1C(=O)Nc1ccc(Cl)c(C(=O)NC2CC2)c1 [Ib-19] | 2.24v |  |
| Cn1nc(C(F)(F)C(F)(F)F)c(C(F)(F)F)c1C(=O)Nc1ccc(Cl)c(C(=O)NCC=CCl)c1 [Ik-83] | 3.72^a) |  |
| Cn1nc(C(F)(Cl)C(F)(F)F)c(Br)c1C(=O)Nc1ccc(Cl)c(C(=O)NC2CC2)c1 (stereo not drawn) [Ik-16] | 3.35^a) |  |
| O=C(NCC=CCl)c1cc(NC(=O)c2nccc(C(F)(F)F)c2Cl)ccc1Cl [Ie-4] | 2.92^a) |  |
| Cn1nc(C(F)(F)C(F)(F)F)c(C(F)(F)F)c1C(=O)Nc1cc(F)c(Cl)c(C(=O)NC2CC2)c1 [Ik-188] | 3.59^a) |  |
| Cn1nc(C(F)(F)C(F)(F)F)c(C(F)(F)F)c1C(=O)Nc1ccnc(C(=O)NC2CC2(F)F)c1 (stereo not drawn) [Ik-130, N-[2-(2,2-Difluorocycloprop-1-ylcarbamoyl)pyrid-4-yl]-1-methyl-3-(pentafluoroethyl)-4-(trifluoromethyl)-1H-pyrazole-5-carboxamide] |  | chromatographic logP [1]: 3.59; chromatographic logP [2]: 3.59 |
| O=C(NCC=CCl)c1cc(NC(=O)c2ncc(C(F)(F)F)cc2Cl)ccc1Cl [Ii-4] | 2.93^a) |  |
| CSc1c(F)cc(NC(=O)c2c(C(F)(F)F)c(C(F)(F)C(F)(F)F)nn2C)cc1C(=O)NCC(F)(F)F [Ik-193] | 3.90^a) |  |
| Cn1nc(C(F)(F)C(F)(F)F)c(C(F)(F)F)c1C(=O)Nc1cc(C(=O)O)c(Br)cn1 [5-bromo-2-({[1-methyl-3-(pentafluoroethyl)-4-(trifluoromethyl)-1H-pyrazol-5-yl]carbonyl}amino)isonicotinic acid] |  | chromatographic logP [1]: 2.85 |
| O=C(NC1CC1)c1cc(NC(=O)c2nccc(C(F)(F)F)c2Cl)ccc1Cl [Ie-1] | 2.48^a) |  |
| Cn1nc(C(F)(F)C(F)(F)F)c(C(F)(F)F)c1C(=O)Nc1ccc(Br)c(C(=O)N[C@@H]2C[C@@H]2F)n1 [Ik-127, N-{3-Bromo[2-(1R,2S)-2-fluorocycloprop-1-ylcarbamoyl]pyrid-6-yl}-1-methyl-3-(pentafluoroethyl)-4-(trifluoromethyl)-1H-pyrazole-5-carboxamide] |  | chromatographic logP [1]: 3.29; chromatographic logP [2]: 3.29 |
| Cn1nc(C(F)(F)C(F)(F)F)c(C(F)(F)F)c1C(=O)Nc1cc(Cl)c(I)c(C(=O)NCC(F)(F)F)c1 [Ik-206] | 4.18^a) |  |
| Cn1nc(C(F)(F)C(F)(F)F)c(C(F)(F)F)c1C(=O)Nc1cc(Br)cc(C(=O)NC2CC2)c1 [Ik-221] | 3.74^a) |  |
| Cn1nc(C(F)(F)C(F)(F)F)c(C(F)(F)F)c1C(=O)O [1-Methyl-3-pentafluoroethyl-4-trifluoromethyl-1H-pyrazole-5-carboxylic acid] |  | chromatographic logP (HPLC method a), eluent acetonitrile/water with formic acid, read-out: logP): 1.86 |
| C=CCNC(=O)c1cc(NC(=O)c2ccc(C(F)(F)F)nc2C)c(C)cc1Cl [Ir-8] | 2.45^a) |  |
| Cn1nc(-c2cc(C(F)(F)F)cc(C(F)(F)F)c2)c(C(F)(F)F)c1C(=O)Nc1ccc(Cl)c(C(=O)NC2CC2)c1 [Ik-259] | 4.19^a) |  |
| CC(NC(=O)c1cc(NC(=O)c2cnc(C(F)(F)C(F)(F)F)nc2C(F)(F)F)ccc1Cl)C1CC1 (stereo not drawn) [Ib-37] | 3.76^a) |  |
| C=CCNC(=O)c1cc(NC(=O)c2c(C(F)(F)F)c(C(F)(F)C(F)(F)F)nn2C)ncc1Cl [Ik-316] | 3.38^a) |  |
| Cn1nc(C(F)(F)C(F)(F)F)c(C(F)(F)F)c1C(=O)Nc1ccc(OC(F)F)c(C(=O)NC2CC2)c1 [Ik-25] | 3.49^a) |  |
| Cn1nc(-c2ccc(C(F)(F)F)cc2)c(Br)c1C(=O)Nc1ccc(Cl)c(C(=O)NCC(F)(F)F)c1 [Ik-253] | 3.99^a) |  |

| SMILES | logP | further results |
| --- | --- | --- |
| Cn1nc(OCC(F)(F)F)c(Cl)c1C(=O)Nc1ccc(Cl)c(C(=O)NC2CC2)c1 [Ik-242] | 2.89^a) |  |
| CC(NC(=O)c1cc(NC(=O)c2c(C(F)(F)F)c(C(F)(F)C(F)(F)F)nn2C)ccc1Br)C(F)(F)F (stereo not drawn) [Ik-174] | 3.95^a) |  |
| Cn1nc(C(F)(F)C(F)(F)F)c(C(F)(F)F)c1C(=O)Nc1ccc(OC(F)F)c(C(=O)O)c1 [Ik-104] | 3.23^a) |  |
| Cn1nc(C(F)(F)C(F)(F)F)c(C(F)(F)F)c1C(=O)Nc1cc(F)c(Cl)c(C(=O)NCc2ccccc2)c1 [Ik-189] | 4.14^a) |  |
| Cn1nc(-c2ccc(Cl)cc2Cl)c(Br)c1C(=O)Nc1ccc(Cl)c(C(=O)NC2CC2)c1 [Ik-250] | 3.59^a) |  |
| Cc1nc(C(F)(F)C(F)(F)F)ncc1C(=O)Nc1ccc(Cl)c(C(=O)NCC(F)(F)F)c1 [Ib-24] | 3.16^a) |  |
| CSc1c(Cl)cc(NC(=O)c2c(C(F)(F)F)c(C(F)(F)C(F)(F)F)nn2C)cc1C(=O)NCc1ccccc1 [Ik-202] | 4.39^a) |  |
| Cn1nc(C(F)(F)C(F)(F)F)c(C(F)(F)F)c1C(=O)Nc1ccc(Cl)c(C(=O)NCc2ccccc2)c1Cl [Ik-149] | 4.33^a) |  |
| Cn1nc(C(F)(F)C(F)(F)F)c(Br)c1C(=O)Nc1ccc(Cl)c(C(=O)NC2CC2)c1 [Ik-26] | 3.22^a) |  |
| Cc1nc(C(F)(F)C(F)(F)F)ncc1C(=O)Nc1ccc(Cl)c(C(=O)NC2CC2)c1 [Ib-23] | 2.76^a) |  |
| COCn1nc(C(F)(F)C(F)(F)F)c(C(F)(F)F)c1C(=O)Nc1ccc(Cl)c(C(=O)NCC(F)(F)F)c1 [Ik-220] |  | logP (HPLC on C18 phase inversion column, method a)): 3.82^a) |
| Cn1nc(OCC(F)(F)F)c(I)c1C(=O)Nc1ccc(Cl)c(C(=O)NCC(F)(F)F)c1 [Ik-244] | 3.24^a) |  |
| CCOC(=O)c1cc(NC(=O)c2nc(C)nc(C(F)(F)C(F)(F)F)c2C(F)(F)F)ccc1Cl [ethyl 2-chloro-5-({[2-methyl-6-(pentafluoroethyl)-5-(trifluoromethyl)pyrimidin-4-yl]-carbonyl}amino)benzoate] |  | chromatographic logP [1]: 4.55 |
| Cn1nc(C(F)(F)C(F)(F)F)c(C(F)(F)F)c1C(=O)Nc1cc(F)c(I)c(C(=O)NCC(F)(F)F)c1 [Ik-226] | 3.95^a) |  |
| Cn1nc(C(F)F)c(C(F)(F)F)c1C(=O)Nc1ccc(Cl)c(C(=O)NC2CC2)c1 [Ik-231] | 2.46^a) |  |
| CCc1c(C(F)(F)C(F)(F)F)nn(C)c1C(=O)Nc1cccc(C(=O)NC2CC2)c1 [Ik-263] | 3.05^a) |  |
| C=CCNC(=O)c1cc(NC(=O)c2c(C(F)(F)F)c(C(F)(F)C(F)(F)F)nn2C)ncc1Br [Ik-315] | 3.42^a) |  |
| Cn1nc(OC(F)F)c(I)c1C(=O)Nc1ccc(Cl)c(C(=O)NC2CC2)c1 [Ik-240] | 2.54^a) |  |
| Cn1nc(C(F)(F)C(F)(F)F)c(Br)c1C(=O)Nc1ccc(Cl)c(C(=O)NCC=CCl)c1 [Ik-28] | 3.64^a) |  |
| Cn1nc(C2CC2)c(Br)c1C(=O)Nc1ccc(Cl)c(C(=O)NC2CC2)c1 [Ik-235] | 2.60^a) |  |
